In patent US8168668B2, “Compounds” (AstraZeneca AB, priority 2005, dated 2012):
Values after ≈ are worked out from the molar mass of the structure shown.

How the values were obtained:
hVR1 = molecular target: T1, hVR1 (Homo sapiens, UniProt Q8NER1); experiment: hVR1 FLIPR (Fluorometric Image Plate Reader) screening assay; format: cell-based; conditions: inhibition of capsaicin-induced intracellular calcium increase
T1 construct: expressed in transfected cells
Method: 1. hVR1 FLIPR (Fluorometric Image Plate Reader) Screening Assay
Transfected CHO cells, stably expessing hVR1 (15,000 cells/well) are seeded in 50 ul media in a black clear bottom 384 plate (Greiner) and grown in a humidified incubator (37° C., 2% CO2), 24-30 hours prior to experiment.
Subsequently, the media is removed from the cell plate by inversion and 2 μM Fluo-4 is added using a multidrop (Labsystems). Following the 40 minutes dye incubation in the dark at 37° C. and 2% CO2, the extracellular dye present is washed away using an EMBLA (Scatron), leaving the cells in 40 ul of assay buffer (1×HBSS, 10 mM D-Glucose, 1 mM CaCl2, 10 mM HEPES, 10×7.5% NaHCO3 and 2.5 mM Probenecid).
FLIPR Assay—IC50 Determination Protocol
For IC50 determinations the fluorescence is read using FLIPR filter 1 (em […]). A is cellular baseline recording is taken for 30 seconds, followed by a 20 μl addition of 10, titrated half-log concentrations of the test compound, yielding cellular concentration ranging from 3 μM to 0.1 nM. Data is collected every 2 seconds for a further 5 minutes prior to the addition of a VR1 agonist solution: 20-50 nM solution of capsaicin by the FLIPR pipettor. The FLIPR continues to collect data for a further 4 minutes. Compounds having antagonistic properties against the hVR1 will inhibit the increase in intracellular calcium in response to the capsaicin addition. This consequently leading to a reduction in fluorescence signal and providing a reduced fluorescence reading, compared with no compound, buffer controls. Data is exported by the FLIPR program as a sum of fluorescence calculated under the curve upon the addition of capsaicin. Maximum inhibition, Hill slope and IC50 data for each compound are generated. […]

[1] = system: carrageenan-induced heat hyperalgesia; experiment: Carrageenan model, heat plantar test (paw withdrawal latency); format: in vivo; conditions: rat, orally administered; for EC50 / ED50: po; for EC50 / ED50 / EC80: tested at Tmax; for Extrapolated Emax: non-linear regression; for Emax observed: reversal of heat hyperalgesia
aqueous solubility test = format: physicochemical; conditions: aqueous medium, pH 7.4, aqueous buffer
[2] = system: FCA-induced heat hyperalgesia; experiment: Freund's Complete Adjuvant (FCA) model, heat plantar test (paw withdrawal latency); format: in vivo; conditions: rat, orally administered

T1 sequence (Q8NER1 whole entry): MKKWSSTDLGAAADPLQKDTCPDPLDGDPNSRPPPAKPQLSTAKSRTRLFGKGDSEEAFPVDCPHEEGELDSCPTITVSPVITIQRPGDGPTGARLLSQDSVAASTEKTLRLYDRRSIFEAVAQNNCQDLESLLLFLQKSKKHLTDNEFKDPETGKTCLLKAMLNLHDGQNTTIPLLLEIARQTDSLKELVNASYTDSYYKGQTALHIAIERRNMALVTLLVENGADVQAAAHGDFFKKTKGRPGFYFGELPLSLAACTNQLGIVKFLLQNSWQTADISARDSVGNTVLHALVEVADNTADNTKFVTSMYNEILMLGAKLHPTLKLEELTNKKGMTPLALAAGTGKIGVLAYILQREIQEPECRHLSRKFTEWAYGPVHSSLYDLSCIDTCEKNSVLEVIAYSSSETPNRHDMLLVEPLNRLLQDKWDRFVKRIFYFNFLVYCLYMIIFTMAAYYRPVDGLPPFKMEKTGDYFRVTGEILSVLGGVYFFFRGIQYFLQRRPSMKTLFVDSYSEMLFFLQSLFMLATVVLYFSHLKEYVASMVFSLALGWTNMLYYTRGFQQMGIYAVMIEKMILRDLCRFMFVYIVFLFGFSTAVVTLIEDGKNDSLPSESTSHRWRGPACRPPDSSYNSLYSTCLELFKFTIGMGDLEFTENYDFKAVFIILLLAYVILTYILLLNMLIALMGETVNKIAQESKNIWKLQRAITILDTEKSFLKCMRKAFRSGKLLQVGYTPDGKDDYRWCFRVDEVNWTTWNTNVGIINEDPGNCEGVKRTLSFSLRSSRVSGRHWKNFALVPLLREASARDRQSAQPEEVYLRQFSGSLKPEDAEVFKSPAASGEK

SMILES | IC50 (hVR1) [nM] | solubility (aqueous solubility test) [µM] | other results
C[C@H](NC(=O)Cn1cnc2cccc([N+](=O)[O-])c21)c1ccc(OC(CF)CF)cc1 [Example 2, N-((1S)-1-{4-[2-fluoro-1-(fluoromethyl)ethoxy]phenyl}ethyl)-2-(7-nitro-1H-benzimidazol-1-yl)acetamide] | – | – | EC50 [1]: 105 nM; ED50 [1]: 1.3 µmol/kg; Extrapolated Emax [1]: 79%; Emax observed [1]: 79%; EC80 [1]: 170 nM
CC(NC(=O)Cn1cnc2cccc([N+](=O)[O-])c21)c1ccc(OC2CCCC2)nc1 (stereo not shown) [Example 12, N-{1-[6-(cyclopentyloxy)pyridine-3-yl]ethyl}-2-(7-nitro-1H-benzimidazol-1-yl)acetamide] | 5 | – | –
CC(NC(=O)Cn1cnc2cccc(C#N)c21)c1ccc(OC(CF)CF)cc1 (stereo not shown) [Example 24, 2-(7-cyano-1H-benzimidazol-1-yl)-N-(1-{4-[2-fluoro-1-(fluoromethyl)ethoxy]phenyl}ethyl)acetamide] | – | 94 (≈ 37.5 µg/mL) | –
CCC(NC(=O)Cn1cnc2cccc([N+](=O)[O-])c21)c1ccc(C(F)(F)F)cn1 (stereo not shown) [Example 29, 2-(7-nitro-1H-benzimidazol-1-yl)-N-{1-[5-(trifluoromethyl)pyridin-2-yl]propyl}acetamide] | – | 92 (≈ 37.5 µg/mL) | –
CC(NC(=O)Cn1cnc2cccc([N+](=O)[O-])c21)c1ccc(C(F)(F)F)cn1 (stereo not shown) [Example 30, 2-(7-nitro-1H-benzimidazol-1-yl)-N-{1-[5-(trifluoromethyl)pyridin-2-yl]ethyl}acetamide] | – | 97 (≈ 38.2 µg/mL) | –
CC(NC(=O)Cn1cnc2cccc(Cl)c21)c1ncc(C(F)(F)F)cc1Cl (stereo not shown) [Example 31, 2-(7-chloro-1H-benzimidazol-1-yl)-N-{1-[3-chloro-5-(trifluoromethyl)pyridin-2-yl]ethyl}acetamide] | – | 87 (≈ 36.3 µg/mL) | –
CC(NC(=O)Cn1cnc2cccc([N+](=O)[O-])c21)c1ncc(C(F)(F)F)cc1Cl (stereo not shown) [Example 32, N-{1-[3-chloro-5-(trifluoromethyl)pyridin-2-yl]ethyl}-2-(7-nitro-1H-benzimidazol-1-yl)acetamide] | – | 87 (≈ 37.2 µg/mL) | –
CC(C)Oc1ccc(C(C)NC(=O)Cn2cnc3cccc(Cl)c32)cn1 (stereo not shown) [Example 35, 2-(7-chloro-1H-benzimidazol-1-yl)-N-[1-(6-isopropoxypyridin-3-yl)ethyl]acetamide] | – | 100 (≈ 37.3 µg/mL) | –
CC(C)Oc1ccc(C(C)NC(=O)Cn2cnc3cccc([N+](=O)[O-])c32)cn1 (stereo not shown) [Example 38, N-[1-(6-isopropoxypyridin-3-yl)ethyl]-2-(7-nitro-1H-benzimidazol-1-yl)acetamide] | – | 86 (≈ 33 µg/mL) | –
CC(NC(=O)Cn1cnc2cccc([N+](=O)[O-])c21)c1ccc(OC2CCCC2)c(F)c1 (stereo not shown) [Example 39, N-{1-[4-(cyclopentyloxy)-3-fluorophenyl]ethyl}-2-(7-nitro-1H-benzimidazol-1-yl)acetamide] | 1 | – | –
C#Cc1ccc(C(C)NC(=O)Cn2cnc3cccc(Cl)c32)cc1 (stereo not shown) [Example 42, 2-(7-chloro-1H-benzimidazol-1-yl)-N-[1-(4-ethynylphenyl)ethyl]acetamide] | – | 77 (≈ 26 µg/mL) | –
CC(NC(=O)Cn1cnc2cccc([N+](=O)[O-])c21)c1ccc(OC2CCN(C)CC2)c(C(F)(F)F)c1 (stereo not shown) [Example 46, N-{1-[4-[(1-Methylpiperidin-4-yl)oxy]-3-(trifluoromethyl)phenyl]ethyl}-2-(7-nitro-1H-benzimidazol-1-yl)acetamide] | – | 100 (≈ 50.5 µg/mL) | –
CO[C@@H](C)COc1ccc(C(C)NC(=O)Cn2cnc3cccc([N+](=O)[O-])c32)cc1C(F)(F)F (stereo partly drawn) [Example 47, N-{1-[4-{[(2S)-2-Methoxypropyl]oxy}-3-(trifluoromethyl)phenyl]ethyl}-2-(7-nitro-1H-benzimidazol-1-yl)acetamide] | 8 | – | –
CC(COc1cccc(C(F)(F)F)c1)NC(=O)Cn1cnc2cccc([N+](=O)[O-])c21 (stereo not shown) [Example 48, N-{1-methyl-2-[3-(trifluoromethyl)phenoxy]ethyl}-2-(7-nitro-1H-benzimidazol-1-yl)acetamide] | 7 | – | –
C[C@H](NC(=O)Cn1cnc2ccc(F)c(F)c21)c1ccc(C(C)(C)C)cc1 [Example 52, N-[(1S)-1-(4-tert-butylphenyl)ethyl]-2-(6,7-difluoro-1H-benzimidazol-1-yl)acetamide] | – | – | EC50 [1]: 500 nM; ED50 [1]: 37.4 µmol/kg; Extrapolated Emax [1]: >100%; Emax observed [1]: 74%; EC80 [1]: 1400 nM; EC50 ([2]; po, tested at Tmax): 1600 nM; ED50 ([2]; po, tested at Tmax): 120 µmol/kg; Extrapolated Emax ([2]; non-linear regression): >100%; Emax observed ([2]; reversal of heat hyperalgesia): 78%; EC80 ([2]; tested at Tmax): 4600 nM

Continued, in another order:

IC50 (hVR1) [nM] | solubility (aqueous solubility test) [µM] | SMILES | other results
1 | – | CC(C)Oc1ccc([C@H](C)NC(=O)Cn2cnc3cccc([N+](=O)[O-])c32)cc1 [Example 1, N-[(1S)-1-(4-isopropoxyphenyl)ethyl]-2-(7-nitro-1H-benzimidazol-1-yl)acetamide] | –
– | 90 (≈ 34.8 µg/mL) | C[C@H](NC(=O)Cn1cnc2cccc([N+](=O)[O-])c21)c1ccc(OCCF)cc1 [Example 3, N-{(1S)-1-[4-(2-fluoroethoxy)phenyl]ethyl}-2-(7-nitro-1H-benzimidazol-1-yl)acetamide] | –
3 | – | C#CC(C)Oc1ccc([C@H](C)NC(=O)Cn2cnc3cccc([N+](=O)[O-])c32)cc1 (stereo partly drawn) [Example 4, N-((1S)-1-{4-[(1-methylprop-2-yn-1-yl)oxy]phenyl}ethyl)-2-(7-nitro-1H-benzimidazol-1-yl)acetamide] | –
– | 97 (≈ 40 µg/mL) | COCC(C)Oc1ccc([C@H](C)NC(=O)Cn2cnc3cccc([N+](=O)[O-])c32)cc1 (stereo partly drawn) [Example 5, N-{(1S)-1-[4-(2-methoxy-1-methylethoxy)phenyl]ethyl}-2-(7-nitro-1H-benzimidazol-1-yl)acetamide] | –
– | 72 (≈ 26.5 µg/mL) | CCOc1ccc([C@H](C)NC(=O)Cn2cnc3cccc([N+](=O)[O-])c32)cc1 [Example 6, N-[(1S)-1-(4-ethoxyphenyl)ethyl]-2-(7-nitro-1H-benzimidazol-1-yl)acetamide] | –
– | 98 (≈ 39.7 µg/mL) | CC(NC(=O)Cn1cnc2cccc([N+](=O)[O-])c21)c1ccc(OCC(F)F)nc1 (stereo not shown) [Example 9, N-{1-[6-(2,2-difluoroethoxy)pyridin-3-yl]ethyl}-2-(7-nitro-1H-benzimidazol-1-yl)acetamide] | –
– | 63 (≈ 26.6 µg/mL) | CC(NC(=O)Cn1cnc2cccc([N+](=O)[O-])c21)c1ccc(OCC(F)(F)F)cc1 (stereo not shown) [Example 14, 2-(7-nitro-1H-benzimidazol-1-yl)-N-{1-[4-(2,2,2-trifluoroethoxy)phenyl]ethyl}acetamide] | –
1 | – | CC[C@H](C)Oc1ccc([C@H](C)NC(=O)Cn2cnc3cccc([N+](=O)[O-])c32)cc1 [Example 15, N-[(1S)-1-(4-{[(1S)-1-methylpropyl]oxy}phenyl)ethyl]-2-(7-nitro-1H-benzimidazol-1-yl)acetamide] | –
10 | – | CC(NC(=O)Cn1cnc2cccc([N+](=O)[O-])c21)c1ccc(C(F)(F)Cl)cc1 (stereo not shown) [Example 16, N-(1-{4-[chloro(difluoro)methyl]phenyl}ethyl)-2-(7-nitro-1H-benzimidazol-1-yl)acetamide] | –
– | 75 (≈ 30.3 µg/mL) | CC(NC(=O)Cn1cnc2cccc([N+](=O)[O-])c21)c1ccc(OCC(F)F)cc1 (stereo not shown) [Example 19, N-{1-[4-(2,2-difluoroethoxy)phenyl]ethyl}-2-(7-nitro-1H-benzimidazol-1-yl)acetamide] | –
5 | – | CC(NC(=O)Cn1cnc2cccc([N+](=O)[O-])c21)c1ccc(OC(F)(F)C(F)F)cc1 (stereo not shown) [Example 22, 2-(7-nitro-1H-benzimidazol-1-yl)-N-{1-[4-(1,1,2,2-tetrafluoroethoxy)phenyl]ethyl}acetamide] | –
9 | – | CC(NC(=O)Cn1cnc2cccc([N+](=O)[O-])c21)c1ccc(OC(F)(F)F)cc1 (stereo not shown) [Example 36, 2-(7-nitro-1H-benzimidazol-1-yl)-N-{1-[4-(trifluoromethoxy)phenyl]ethyl}acetamide] | –
6 | – | CC(NC(=O)Cn1cnc2cccc([N+](=O)[O-])c21)c1ccc(C(F)(F)F)cc1 (stereo not shown) [Example 37, 2-(7-nitro-1H-benzimidazol-1-yl)-N-{1-[4-(trifluoromethyl)phenyl]ethyl}acetamide] | –
3 | – | CC(NC(=O)Cn1cnc2cccc([N+](=O)[O-])c21)c1ccc(C2CC2)cc1 (stereo not shown) [Example 40, N-[1-(4-cyclopropylphenyl)ethyl]-2-(7-nitro-1H-benzimidazol-1-yl)acetamide] | –
– | 82 (≈ 28.6 µg/mL) | C#Cc1ccc(C(C)NC(=O)Cn2cnc3cccc([N+](=O)[O-])c32)cc1 (stereo not shown) [Example 41, N-[1-(4-ethynylphenyl)ethyl]-2-(7-nitro-1H-benzimidazol-1-yl)acetamide] | –
